Test results taken from PubChem BioAssay (NCI).
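96-well plates; 48 h exposure; 5 concentrations. Endpoints by linear interpolation between flanking doses. Not reached: highest tested concentration assigned. Here, GI50 denotes the concentration required for 50% inhibition of growth. TGI: total growth inhibition.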

Key:
Assay in all cases: DTP human tumour cell line panel, 48 h; in the data active = GI50 below about 0.43 µM; inactive = the rest
786-0 renal = test system: 786-0 renal
A498 renal = test system: A498 renal
A549 NSCLC = test system: A549 NSCLC
ACHN renal = test system: ACHN renal
BT-549 breast = test system: BT-549 breast
CAKI-1 renal = test system: CAKI-1 renal
DU-145 prostate = test system: DU-145 prostate
EKVX NSCLC = test system: EKVX NSCLC
HCC-2998 colon = test system: HCC-2998 colon
HCT-116 colon = test system: HCT-116 colon
HCT-15 colon = test system: HCT-15 colon
HL-60(TB) leukemia = test system: HL-60(TB) leukemia
HOP-62 NSCLC = test system: HOP-62 NSCLC
HOP-92 NSCLC = test system: HOP-92 NSCLC
HS 578T breast = test system: HS 578T breast
HT29 colon = test system: HT29 colon
IGROV1 ovarian = test system: IGROV1 ovarian
K-562 leukemia = test system: K-562 leukemia
KM12 colon = test system: KM12 colon
LOX IMVI melanoma = test system: LOX IMVI melanoma
M14 melanoma = test system: M14 melanoma
MALME-3M melanoma = test system: MALME-3M melanoma
MDA-MB-231 breast = test system: MDA-MB-231 breast
MDA-MB-435 = test system: MDA-MB-435
NCI-H226 lung = test system: NCI-H226 lung
NCI-H23 lung = test system: NCI-H23 lung
NCI-H460 lung = test system: NCI-H460 lung
NCI-H522 lung = test system: NCI-H522 lung
NCI/ADR-RES ovarian = test system: NCI/ADR-RES ovarian
OVCAR-4 ovarian = test system: OVCAR-4 ovarian
OVCAR-5 ovarian = test system: OVCAR-5 ovarian
OVCAR-8 ovarian = test system: OVCAR-8 ovarian
PC-3 prostate = test system: PC-3 prostate
RPMI-8226 leukemia = test system: RPMI-8226 leukemia
RXF 393 renal = test system: RXF 393 renal
SF-268 CNS = test system: SF-268 CNS
SF-295 CNS = test system: SF-295 CNS
SF-539 CNS = test system: SF-539 CNS
SK-MEL-2 melanoma = test system: SK-MEL-2 melanoma
SK-MEL-28 melanoma = test system: SK-MEL-28 melanoma
SK-OV-3 ovarian = test system: SK-OV-3 ovarian
SN12C renal = test system: SN12C renal
SNB-19 CNS = test system: SNB-19 CNS
SNB-75 CNS = test system: SNB-75 CNS
SW-620 colon = test system: SW-620 colon
TK-10 renal = test system: TK-10 renal
U251 CNS = test system: U251 CNS
UACC-62 melanoma = test system: UACC-62 melanoma
UO-31 renal = test system: UO-31 renal

Fc1cccc(Cl)c1/C=N/Nc1nc(N/N=C/c2c(F)cccc2Cl)nc(N2CCCCC2)n1
52.9 µM: TGI (SF-268 CNS)
22.5 µM: TGI (U251 CNS)
10.7 µM: TGI (SF-295 CNS)
inactive: GI50 (786-0 renal) 3.44 µM | GI50 (A498 renal) 2.4 µM | GI50 (A549 NSCLC) 3.04 µM | GI50 (ACHN renal) 3.04 µM | GI50 (BT-549 breast) 4.45 µM | GI50 (CAKI-1 renal) 3.01 µM | GI50 (DU-145 prostate) 11.7 µM | GI50 (EKVX NSCLC) 1.54 µM | GI50 (HCC-2998 colon) 3.68 µM | GI50 (HCT-116 colon) 2.83 µM | GI50 (HCT-15 colon) 2.82 µM | GI50 (HL-60(TB) leukemia) 2 µM | GI50 (HOP-62 NSCLC) 2.85 µM | GI50 (HOP-92 NSCLC) 1.47 µM | GI50 (HS 578T breast) 2.44 µM | GI50 (HT29 colon) 2.9 µM | GI50 (IGROV1 ovarian) 3.16 µM | GI50 (K-562 leukemia) 3.08 µM | GI50 (KM12 colon) 2.93 µM | GI50 (LOX IMVI melanoma) 3.77 µM | GI50 (M14 melanoma) 2.4 µM | GI50 (MALME-3M melanoma) 2.21 µM | GI50 (MDA-MB-231 breast) 7.65 µM | GI50 (MDA-MB-435) 2.86 µM | GI50 (NCI-H226 lung) 6.48 µM | GI50 (NCI-H23 lung) 3.42 µM | GI50 (NCI-H460 lung) 3.14 µM | GI50 (NCI-H522 lung) 2.57 µM | GI50 (NCI/ADR-RES ovarian) 2.76 µM | GI50 (OVCAR-4 ovarian) 2.58 µM | GI50 (OVCAR-5 ovarian) 3.8 µM | GI50 (OVCAR-8 ovarian) 3.89 µM | GI50 (PC-3 prostate) 2.06 µM | GI50 (RPMI-8226 leukemia) 2.26 µM | GI50 (RXF 393 renal) 2.65 µM | GI50 (SF-268 CNS) 4.22 µM | GI50 (SF-295 CNS) 1.01 µM | GI50 (SF-539 CNS) 7.65 µM | GI50 (SK-MEL-2 melanoma) 1.69 µM | GI50 (SK-MEL-28 melanoma) 3.41 µM | GI50 (SK-OV-3 ovarian) 3.65 µM | GI50 (SN12C renal) 2.85 µM | GI50 (SNB-19 CNS) 3.25 µM | GI50 (SNB-75 CNS) 2.36 µM | GI50 (SW-620 colon) 3.51 µM | GI50 (TK-10 renal) 3.73 µM | GI50 (U251 CNS) 3.56 µM | GI50 (UACC-62 melanoma) 2.35 µM | GI50 (UO-31 renal) 2.01 µM
5.36 µM: TGI (HOP-92 NSCLC)
10.5 µM: TGI (SNB-75 CNS)
12.8 µM: TGI (ACHN renal)
9 µM: TGI (M14 melanoma)
9.68 µM: TGI (NCI-H522 lung)
20.9 µM: TGI (BT-549 breast)
14.7 µM: TGI (786-0 renal)
24.3 µM: TGI (SF-539 CNS)
16.8 µM: TGI (NCI-H23 lung)
18 µM: TGI (SNB-19 CNS)
24.4 µM: TGI (MDA-MB-231 breast)
6.26 µM: TGI (MALME-3M melanoma)
15.4 µM: TGI (HS 578T breast) | TGI (SK-OV-3 ovarian)
13.2 µM: TGI (A498 renal)
> 100 µM: TGI (A549 NSCLC) | TGI (DU-145 prostate) | TGI (EKVX NSCLC) | TGI (HCC-2998 colon) | TGI (HCT-15 colon) | TGI (HL-60(TB) leukemia) | TGI (HT29 colon) | TGI (IGROV1 ovarian) | TGI (K-562 leukemia) | TGI (KM12 colon) | TGI (LOX IMVI melanoma) | TGI (MDA-MB-435) | TGI (NCI-H226 lung) | TGI (NCI-H460 lung) | TGI (NCI/ADR-RES ovarian) | TGI (OVCAR-4 ovarian) | TGI (OVCAR-5 ovarian) | TGI (OVCAR-8 ovarian) | TGI (PC-3 prostate) | TGI (RPMI-8226 leukemia) | TGI (SK-MEL-28 melanoma) | TGI (SN12C renal) | TGI (SW-620 colon) | TGI (UO-31 renal)
15.5 µM: TGI (CAKI-1 renal)
9.11 µM: TGI (TK-10 renal)
9.5 µM: TGI (UACC-62 melanoma)
3.91 µM: TGI (SK-MEL-2 melanoma)
12 µM: TGI (HOP-62 NSCLC)
11.5 µM: TGI (RXF 393 renal)
11.9 µM: TGI (HCT-116 colon)
